In ChEMBL document CHEMBL4402538, “Mycobacterial tryptophan biosynthesis: A promising target for tuberculosis drug development?” (Bioorg Med Chem Lett, 2019):
In brackets after ≈: the same amount, converted by molar mass.

Experiments:
[1] = tested on: Mycobacterium tuberculosis; test: Antimycobacterial activity against Mycobacterium tuberculosis H37Rv infected in C57BL/6 mouse assessed as reduction in colony forming unit at 350 mg/kg, po administered for 8 consecutive days starting from day 1 post infection relative to control; assay type: functional
[2] = Cytotoxicity against human HepG2 cells after 48 hrs by CellTiter Glo assay; assay type: cell-based
[3] = tested on: Mycobacterium tuberculosis; test: Antitubercular activity against Mycobacterium tuberculosis H37Rv; assay type: functional
[4] = Intrinsic clearance in mouse liver microsomes incubated for 30 mins and measured up to 30 mins by LC-MS/MS analysis; assay type: ADME, Microsome; details: 0.5 h
[5] = tested on: Mycobacterium tuberculosis; test: Antimycobacterial activity against Mycobacterium tuberculosis in absence of tryptophan by Alamar Blue assay; assay type: functional
[6] = tested on: Mycobacterium tuberculosis; test: Antimycobacterial activity against pan-sensitive Mycobacterium tuberculosis HN-878 incubated for 2 weeks; assay type: functional; details: HN-878, 336 h
[7] = tested on: Mycobacterium tuberculosis; test: Antimycobacterial activity against pan-sensitive Mycobacterium tuberculosis AS2 incubated for 2 weeks; assay type: functional; details: AS2, 336 h
[8] = tested on: Mycobacterium tuberculosis; test: Antimycobacterial activity against pan-sensitive Mycobacterium tuberculosis CI-5 incubated for 2 weeks; assay type: functional; details: CI-5, 336 h
[9] = tested on: Mycobacterium tuberculosis; test: Antimycobacterial activity against wild-type Mycobacterium tuberculosis H37Rv infected in mouse J774 cells assessed as reduction in bacterial growth incubated for 3 days relative to control; assay type: functional
[10] = tested on: Mycobacterium tuberculosis; test: Antimycobacterial activity against pan-sensitive Mycobacterium tuberculosis CI-11 incubated for 2 weeks; assay type: functional; details: CI-11, 336 h
[11] = tested on: Mycobacterium marinum; test: Antimycobacterial activity against Mycobacterium marinum infected in zebra fish embryos assessed as reduction in bacterial growth at 15 to 30 uM incubated for 5 days relative to control; assay type: functional
[12] = tested on: Mycobacterium tuberculosis; test: Antimycobacterial activity against pan-sensitive Mycobacterium tuberculosis AS4 incubated for 2 weeks; assay type: functional; details: AS4, 336 h
[13] = tested on: Mycobacterium tuberculosis; test: Antimycobacterial activity against wild-type Mycobacterium tuberculosis H37Rv incubated for 2 weeks; assay type: functional; details: 336 h
[14] = tested on: Mycobacterium tuberculosis; test: Antimycobacterial activity against pan-sensitive Mycobacterium tuberculosis CDC1551 incubated for 2 weeks; assay type: functional; details: CDC1551, 336 h
[15] = Cytotoxicity against human HepG2 cells; assay type: cell-based
[16] = Intrinsic clearance in mouse liver microsomes at 1 uM in presence of NADPH measured up to 60 mins by LC-MS/MS analysis; assay type: ADME, Microsome; details: read-out: CLH
[17] = tested on: Mycobacterium tuberculosis; test: Antimycobacterial activity against pan-sensitive Mycobacterium tuberculosis CI-4 incubated for 2 weeks; assay type: functional; details: CI-4, 336 h
[18] = Inhibition of Mycobacterium tuberculosis Anthranilate phosphoribosyltransferase expressed in Escherichia coli BL21(DE3) pRIL cells using PRPP as substrate in presence of PRAI-InGPS by fluorescence-based assay
[19] = Cytotoxicity against human HepG2 cells after 24 hrs by CellTiter 96 AQueous One Solution Cell Proliferation assay; assay type: cell-based
[20] = Oral bioavailability in CD-1 mouse at 100 mg/kg measured up to 24 hrs; assay type: ADME, organism-based; details: in vivo
[21] = tested on: Mycobacterium tuberculosis; test: Antitubercular activity against Mycobacterium tuberculosis H37Rv ATCC 27294 after 10 days; assay type: functional; details: H37Rv ATCC 27294, 240 h
[22] = tested on: Mycobacterium tuberculosis; test: Antitubercular activity against Mycobacterium tuberculosis H37Rv infected in BALB/c mouse assessed as reduction in bacterial load in infected mouse spleen at 100 mg/kg, po administered 6 days per week for 4 weeks relative to control; assay type: functional
[23] = tested on: Mycobacterium tuberculosis H37Rv; test: Inhibition of Tryptophan synthase alpha in Mycobacterium tuberculosis H37Rv assessed as bactericidal activity incubated for 4 weeks by agar dilution method
[24] = tested on: Mycobacterium tuberculosis; test: Antimycobacterial activity against Mycobacterium tuberculosis H37Rv in presence of tryptophan after 14 days by broth microdilution method; assay type: functional; details: 336 h
[25] = tested on: Mycobacterium tuberculosis; test: Antitubercular activity against Mycobacterium tuberculosis infected in mouse assessed as reduction in bacterial load in infected mouse spleen at 200 mg/kg administered 8 days post infection and measured at 2 week relative to control; assay type: functional

## O=S1(=O)C[C@H](O)[C@@H](N2CCN(c3ccc(F)cc3Cl)CC2)C1
[1]
  log(activity): 1.4
[2]
  CC50 at 48 h: > 100 µM
[3]
  MIC: 2.25 µM (≈ 0.785 µg/mL)
[4]
  CLH: < 0.5 mL/min/g

## CNS(=O)(=O)c1ccc2c(c1)CCN2C(=O)c1ccccc1F
[2]
  CC50 at 48 h: > 100 µM
[4]
  CLH: 39.5 mL/min/g

## Nc1ccc(F)cc1C(=O)O
[5]
  MIC: 5 µM (≈ 0.776 µg/mL)

## N#C[C@@H]1N[C@@H](CO)[C@H]1c1ccc(-c2ccccc2F)cc1
[6]
  MIC90: 3 µM (≈ 0.847 µg/mL)
[7]
  MIC90: 3 µM (≈ 0.847 µg/mL)
[8]
  MIC90: 3 µM (≈ 0.847 µg/mL)
[9]
  fold change (FC): 8
[10]
  MIC90: 1.6 µM (≈ 0.452 µg/mL)
[11]
  log(activity): 1.5
[12]
  MIC90: 3 µM (≈ 0.847 µg/mL)
[13]
  MIC90: 3 µM (≈ 0.847 µg/mL)
[14]
  MIC90: 3 µM (≈ 0.847 µg/mL)
[15]
  CC50: > 100 µM
[16]
  microsomal CLint at 1 µM: 336 µL/min/mg
[17]
  MIC90: 1.6 µM (≈ 0.452 µg/mL)

## O=C(O)c1ccccc1Nc1ccccc1C(=O)O
[18]
  Ki: 1.5 µM

## O=C(O)CCc1c[nH]c2ccccc12 [INDOLYLPROPIONIC ACID]
[19]
  CC50 at 24 h: > 1000 µM
[20]
  bioavailability: 30 to 33%
[21]
  MIC50: 68 µM (≈ 12.9 µg/mL)
[22]
  fold change (FC): 7

## NC(=O)c1ccc(CNC(=O)c2cc(-c3cccc(Cl)c3)on2)cc1
[23]
  MIC: 6 µg/mL (≈ 16.9 µM)

## Cc1cccc(NC(=O)COC(=O)CCc2c[nH]c3ccccc23)c1
[24]
  MIC90: < 64 µM

## Nc1cccc(F)c1C(=O)O
[25]
  fold change (FC): 10
[5]
  MIC: 5 µM (≈ 0.776 µg/mL)

## CNS(=O)(=O)c1ccc2c(c1)CCN2C(=O)c1ccc(C)s1
[2]
  CC50 at 48 h: > 100 µM
[4]
  CLH: 27.1 mL/min/g

## O=S1(=O)C[C@H](O)[C@@H](N2CCC(c3ccccc3Cl)CC2)C1
[2]
  CC50 at 48 h: > 100 µM
[3]
  MIC: 0.5 µM (≈ 0.165 µg/mL)
[4]
  CLH: 73.7 mL/min/g

## O=S1(=O)C[C@H](O)[C@@H](N2CCN(c3ccccc3Cl)CC2)C1
[2]
  CC50 at 48 h: > 50 µM
[4]
  CLH: 15.7 mL/min/g
